Measured values taken from patent US6235514A, “Nucleic acid molecules encoding isopentenyl monophosphate kinase, and methods of use” (Washington State University Research Foundation, priority 1999, dated 2001).
Values joined by “and” are separate entries in the source; they are usually repeats but may differ in a detail not shown here. Equal entries are not always repeated.

How the values were obtained:
[1] = test system: isolated peppermint oil gland secretory cells; test: Feeding studies with isolated peppermint oil gland secretory cells, incorporation into terpenoids; format: cell-based, peppermint (Mentha x piperita L. cv. Black Mitcham); conditions: radiolabeled precursor, 23° C., 2 h; average of two experiments; includes geraniol and farnesol
Protocol: Isolation of and Feeding Studies with Peppermint Oil Gland Secretory Cells: Leaves (15-20 g; <10 mm in length) were excised from peppermint plants (Mentha x piperita L. cv. Black Mitcham) and the oil gland secretory cells were isolated by the glass bead abrasion method (McCaskill, D. & Croteau, R., Planta, 197:49-56 [1995]). Following isolation, the secretory cells were washed with 25 mM Tris/HCl buffer (pH 7.3) containing 200 mM sorbitol, 10 mM sucrose, 5 mM MgCl2, 10 mM KCl, 1 mM ethyleneglycol bis(β-aminoethyl ether), 8.5 mM Na2 HPO4, and 0.1 mM Na4 P2 O7, and then suspended in the same buffer supplemented with 2 mM ATP, 0.1 mM NADPH, 0.1 mM NAD^+, 5 mM phosphoenol pyruvate, and 5 mM glucose-6-phosphate. Cell density was determined using a hemocytometer and was adjusted to 1-2×10^5 cellular disks (each containing eight secretory cells) per milliliter suspension. Aliquots (1-1.5 ml) were transferred to 15 ml screw-cap glass vials, and the suspended cells were aerated and incubated at 23° C. for 2 h. At the end of the incubation period, the suspension was extracted three times with 1 ml diethyl ether. The combined organic extract was washed with 1 ml of 1 M Na2 CO3 and dried over Na2 SO4. An aliquot was removed for liquid scintillation counting and, to the remainder, authentic standards (10-50 μg each) of isopentenol, dimethylallyl alcohol, geraniol, farnesol, limonene, menthone, menthol, pulegone, humulene, and caryophyllene were added. These extracts were then slowly concentrated on ice under a gentle stream of N2 to ~200 μl, and were then transferred to conical glass vials and further concentrated to 5-10 μl at 20° C. in preparation for chromatographic analysis.
Radio-GLC Analysis of Peppermint Isoprenoids: Radio-GC was performed according to a published method (Croteau, R. & Satterwhite, D. M. J. Chromatog. 500:349-354 [1990]) with several modifications; 0.25 mm i.d.×30 m AT 1000 fused silica column with 0.2 μm film thickness (Alltech); helium carrier gas at 3-6 ml/min^-1; temperature program from 70 to 200° C. at 5° C./min^-1; injector at 200° C.; thermal conductivity detector at 220° C. and 140 mA; propane quench gas at 10-15 ml/min^-1. The relative peak area corresponding to each biosynthetic product was converted to dpm as a fraction of the total radioactivity determined by liquid scintillation counting prior to concentration. The absolute amount of each component formed was then calculated based on the specific activity of the corresponding radiolabeled substrate.

[2] = target: E. coli IP kinase (ychB, SEQ ID NO:6), partially purified (Escherichia coli, UniProt P62615); test: Kinase assay, partially purified recombinant E. coli IP kinase; format: biochemical; conditions: for Cofactor / phosphate donor requirement of kinase activity: IP as substrate, partially purified E. coli kinase; for Phosphorylating activity with substrate, in words, partially purified E. coli kinase: partially purified protein
Sequence of E. coli IP kinase (ychB, SEQ ID NO:6), partially purified (P62615 whole entry): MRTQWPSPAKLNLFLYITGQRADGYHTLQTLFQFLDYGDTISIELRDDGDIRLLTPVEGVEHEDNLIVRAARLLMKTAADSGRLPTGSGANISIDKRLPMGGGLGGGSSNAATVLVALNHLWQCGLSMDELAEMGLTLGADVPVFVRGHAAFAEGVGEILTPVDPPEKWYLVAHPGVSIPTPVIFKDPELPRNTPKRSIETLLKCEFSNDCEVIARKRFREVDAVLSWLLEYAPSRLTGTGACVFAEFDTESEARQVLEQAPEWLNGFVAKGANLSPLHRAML

[3] = target: T1, recombinant peppermint kinase (isopentenyl monophosphate kinase, SEQ ID NO:2) (Mentha piperita, UniProt P56848); test: Kinase assay, recombinant peppermint IP kinase, crude extracts of transformed E. coli; format: biochemical, peppermint (Mentha x piperita); conditions: crude extract, standard assay conditions
T1 sequence (P56848 98-405): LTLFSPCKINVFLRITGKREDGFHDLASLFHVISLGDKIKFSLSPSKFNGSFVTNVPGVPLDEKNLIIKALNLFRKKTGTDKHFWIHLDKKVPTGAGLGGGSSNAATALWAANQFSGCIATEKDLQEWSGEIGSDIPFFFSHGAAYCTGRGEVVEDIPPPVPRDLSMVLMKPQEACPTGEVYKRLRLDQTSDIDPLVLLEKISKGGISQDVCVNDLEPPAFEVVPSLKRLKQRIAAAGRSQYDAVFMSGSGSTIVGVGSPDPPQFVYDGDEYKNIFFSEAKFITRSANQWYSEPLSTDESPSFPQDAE

[4] = test system: E. coli background (repressed, 0.02% glucose); test: Kinase assay, E. coli background (repressed) controls; format: biochemical; conditions: crude extract, transgene repressed with 0.02% glucose; rates are minimums
[5] = target: E. coli IP kinase (ychB, SEQ ID NO:6) (Escherichia coli, UniProt P62615); test: Kinase assay, recombinant E. coli IP kinase (induced), crude extracts; format: biochemical; conditions: crude extract, induced with 0.02% arabinose; rates are minimums
Sequence of E. coli IP kinase (ychB, SEQ ID NO:6) (P62615 whole entry): as the sequence (P62615 whole entry) above

Compound: C=C(C)CCOP(=O)(O)OP(=O)(O)O [IPP, isopentenyl diphosphate]
- Total Terpenoids (C10 + C15), rate of incorporation into total monoterpenoids and sesquiterpenoids [1]: 561 pmol (h 10^5 cell clusters)^-1

Compound: CC(C)=CCOP(=O)(O)O [DMAP, dimethylallyl monophosphate]
- Total Terpenoids (C10 + C15), rate of incorporation into total monoterpenoids and sesquiterpenoids [1]: 6 pmol (h 10^5 cell clusters)^-1 and < 6 pmol (h 10^5 cell clusters)^-1

Compound: Nc1ncnc2c1ncn2[C@@H]1O[C@H](COP(=O)(O)OP(=O)(O)OP(=O)(O)O)[C@@H](O)[C@H]1O [ATP]
- Cofactor / phosphate donor requirement of kinase activity [2]: dependent upon the presence

Compound: Nc1nc2c(ncn2[C@@H]2O[C@H](COP(=O)(O)OP(=O)(O)OP(=O)(O)O)[C@@H](O)[C@H]2O)c(=O)[nH]1 [GTP]
- Cofactor / phosphate donor requirement of kinase activity [2]: did not serve as alternate phosphate donors

Compound: C[C@](O)(CO)[C@H](O)COP(=O)(O)O [MEP, 2-C-methylerythritol-4-phosphate]
- Kinase activity with substrate, recombinant peppermint kinase [3]: less than 0.2 pmol (s g protein)^-1
- Rate (kinase activity with substrate), E. coli (repressed) [4]: < 0.2 pmol/s · g protein
- Rate (kinase activity with substrate), E. coli (induced) [5]: < 0.2 pmol/s · g protein
- Phosphorylating activity with substrate, in words, partially purified E. coli kinase [2]: no phosphorylating activity was detectable

Compound: Nc1ccn([C@@H]2O[C@H](COP(=O)(O)OP(=O)(O)OP(=O)(O)O)[C@@H](O)[C@H]2O)c(=O)n1 [CTP]
- Cofactor / phosphate donor requirement of kinase activity [2]: did not serve as alternate phosphate donors

Compound: C=C(C)CCOP(=O)(O)O [IP, isopentenyl monophosphate]
- Total Terpenoids (C10 + C15), rate of incorporation into total monoterpenoids and sesquiterpenoids [1]: 43 pmol (h 10^5 cell clusters)^-1

Compound: [Cl-].[Cl-].[Mg+2] [MgCl2]
- Cofactor / phosphate donor requirement of kinase activity [2]: dependent upon the presence

Compound: CC(C)=CCOP(=O)(O)OP(=O)(O)O [DMAPP, dimethylallyl diphosphate]
- Total Terpenoids (C10 + C15), rate of incorporation into total monoterpenoids and sesquiterpenoids [1]: 4 pmol (h 10^5 cell clusters)^-1 and < 6 pmol (h 10^5 cell clusters)^-1

Compound: C=C(C)CCO [ISO, isopentenol]
- Total Terpenoids (C10 + C15), rate of incorporation into total monoterpenoids and sesquiterpenoids [1]: 304 pmol (h 10^5 cell clusters)^-1

Compound: CC(C)=CCO [DMA, dimethylallyl alcohol]
- Total Terpenoids (C10 + C15), rate of incorporation into total monoterpenoids and sesquiterpenoids [1]: negligible
- Kinase activity with substrate, recombinant peppermint kinase [3]: ≤ 0.01 pmol (s g protein)^-1
- Rate (kinase activity with substrate), E. coli (repressed) [4]: < 0.01 pmol/s · g protein
- Rate (kinase activity with substrate), E. coli (induced) [5]: < 0.01 pmol/s · g protein
- Rate (kinase activity with substrate), E. coli (partially purified) ([2]; Ni2+ affinity-purified enzyme, averages with standard deviation): 11 ± 5 pmol/s · g protein
- Phosphorylating activity with substrate, in words, partially purified E. coli kinase [2]: readily catalyzed the conversion

Compound: O=c1ccn([C@@H]2O[C@H](COP(=O)(O)OP(=O)(O)OP(=O)(O)O)[C@@H](O)[C@H]2O)c(=O)[nH]1 [UTP]
- Cofactor / phosphate donor requirement of kinase activity [2]: did not serve as alternate phosphate donors
